Where two headings read alike, the source gives them in different places.
Tests used:
p38-MK2 = p38-MK2 (Homo sapiens, UniProt P49137+Q16539); conditions: patients with rheumatoid arthritis, preliminary clinical trial results; cited from earlier work
p-Hsp27 in U937 cells = test: Inhibition of p-Hsp27 in LPS-stimulated U937 cells (ELISA); assay type: cell-based; conditions: Homo sapiens, U-937; PMA-differentiated U937, 10 ng/ml LPS 0.5 hours; read-out: U937 cell activity test p-HSP27 IC50
Procedure: U937 cells were treated with 20 ng/ml PMA for differentiation overnight, and after replacement with a fresh culture medium, the U937 cells were rested overnight. After differentiation, the U937 cell were digested and counted, and 25,000 cells per well were seeded in a 96-well plate until the cells adhered to the wall. A compound concentration gradient was prepared, the cells were pretreated with the compound for 1 hour (the highest final concentration of the compound was 1 μM, diluted in 3-fold concentration gradient), and 10 ng/ml LPS (Lipopolysaccharides from Escherichia coli O111:B4) was added for stimulation for 0.5 hours. After the cells were washed with PBS, the cells were lysed with a lysis solution. p-Hsp27 in the cell lysate was detected by using Phospho-HSP27 (S78/S82) DuoSet IC ELISA kit. For specific steps, reference could be made to the standard steps provided by the kit manufacturer.
Calculation of p-Hsp27 inhibition rate: Inhibition rate %=[(mean value of p-Hsp27 in positive control well−mean value of p-Hsp27 in sample well)/(mean value of p-Hsp27 in positive control well−mean value of p-Hsp27 in negative control well)]×100%, wherein the positive control well was a well without a compound (DMSO-treated well), and the negative control well was a well without LPS stimulation.
(§1) Dose response curve fitting: Log(inhibitor) vs. response−Variable slope (four parameters) in GraphPad Prism 6 was used for fitting equation analysis of the compound concentration and the corresponding inhibition rate, and the curve was fitted to obtain the IC50 value of the compound.
(§2) The fitting calculation equation was Y=Bottom+(Top−Bottom)/(1+10^((Log IC50−X)*HillSlope)).

p38α/MK2 = biological target: T1, p38α/MK2 (Homo sapiens, UniProt P49137+Q16539); test: Inhibition of p38α/MK2 enzyme activity (TR-FRET, ULight-CREBtide); assay type: biochemical; conditions: for IC50: 0.06 nM p38a, 1.2 nM MK2, 25 μM ATP, read-out: p38/MK2 IC50; for Selectivity ratio (p38 IC50 / p38/MK2 IC50): selectivity ratio p38 IC50 over p38/MK2 IC50
T1 construct: purchased R & D systems (p38 alpha); Thermo (MK2) 5477-KS-010; PV3316
T1 sequence (Q16539 whole entry): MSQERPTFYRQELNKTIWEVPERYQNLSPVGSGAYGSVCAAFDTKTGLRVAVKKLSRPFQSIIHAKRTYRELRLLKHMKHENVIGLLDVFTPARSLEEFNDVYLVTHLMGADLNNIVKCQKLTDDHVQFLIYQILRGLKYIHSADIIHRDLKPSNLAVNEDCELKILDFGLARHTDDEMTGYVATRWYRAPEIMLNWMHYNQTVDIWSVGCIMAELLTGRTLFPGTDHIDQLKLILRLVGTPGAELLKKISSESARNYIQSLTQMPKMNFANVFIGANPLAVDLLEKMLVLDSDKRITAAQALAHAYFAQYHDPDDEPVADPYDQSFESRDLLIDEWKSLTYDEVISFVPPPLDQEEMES
T1 sequence (P49137 whole entry): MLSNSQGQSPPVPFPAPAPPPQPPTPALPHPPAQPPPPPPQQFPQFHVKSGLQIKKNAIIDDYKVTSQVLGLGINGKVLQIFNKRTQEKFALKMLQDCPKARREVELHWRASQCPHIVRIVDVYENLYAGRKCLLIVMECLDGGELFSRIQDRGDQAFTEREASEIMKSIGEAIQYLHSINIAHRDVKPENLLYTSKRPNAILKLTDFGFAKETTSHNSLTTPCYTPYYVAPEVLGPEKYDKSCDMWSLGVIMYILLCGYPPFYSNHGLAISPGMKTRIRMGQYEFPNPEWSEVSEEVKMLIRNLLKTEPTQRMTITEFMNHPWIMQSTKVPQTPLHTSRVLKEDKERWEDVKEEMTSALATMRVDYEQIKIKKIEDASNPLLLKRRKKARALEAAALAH
Procedure: (§3) 50 nM ULight-CREBtide and 25 μM ATP (ATP Solution) were added, and the mixture was reacted at room temperature for 1.5 hours. An equal volume of a detection and termination mixed solution (1×LANCE detection buffer containing 20 mM EDTA and 2 nM Europium-anti-phospho-CREB) was added, the mixture was mixed until uniform and centrifuged, a plate sealing film was attached, and a reaction was performed at room temperature for 1 hour. TR-FRET program of the EnVision instrument was used to read the plate, and the fluorescence value of each well was detected at 665 nm/615 nm.
(§4) Calculation was performed on the raw data (665 nm/615 nm reading ratio) according to the following formula to obtain the inhibition rate. Inhibition rate %=[(mean value in positive control well−value in sample well)/(mean value in positive control well−mean value in negative control well)]×100, wherein the positive control well was a reaction well without a compound […], and the negative control well was a reaction wells without an enzyme.
(§5) Log(inhibitor) vs. response−Variable slope (four parameters) in GraphPad Prism 6 was used for fitting equation analysis of the compound concentration and the corresponding inhibition rate, and the curve was fitted to obtain the IC50 value of the compound.
as §2

[1] = biological target: T2, p38a (Active p38 alpha Protein) (Homo sapiens, UniProt Q16539); test: Inhibition of p38 enzyme activity (TR-FRET, ULight-MBP); assay type: biochemical; conditions: 3 nM p38a, 50 μM ATP
T2 construct: purchased R & D systems 5477-KS-010
T2 sequence (Q16539 whole entry): as the sequence (Q16539 whole entry) above
Procedure: as §3, with “Experimental method for determining the p38 enzyme activity: 3 nM p38a (Active p38 alpha Protein) and compounds diluted in a certain concentration gradient were incubated in 1× enzyme reaction buffer (50 mM HEPES pH 7.5, 1 mM EGTA, 10 mM MgCl2, 2 mM DTT, 0.01% Tween-20) for 1 hour. 50” for “50”, “ULight-MBP” for “ULight-CREBtide”, “50” for “25”, “(ATP 10 mM” for “(ATP”, “Europium-anti-P-MBP)” for “Europium-anti-phospho-CREB)”
as §4, §5, §2

TNF-α in U937 cells = test: Inhibition of the expression level of TNF-α in LPS-stimulated U937 cells (ELISA); assay type: cell-based; conditions: Homo sapiens, U-937; PMA-differentiated U937, 10 ng/ml LPS 4 hours; read-out: U937 cell activity test TNF-α IC50
Procedure: U937 cells were treated with 20 ng/ml PMA for differentiation overnight, and after replacement with a fresh culture medium, the U937 cells were rested overnight. After differentiation, the U937 cells were digested and counted, and 50,000 cells per well were seeded in a 96-well plate until the cells adhered to the wall. A compound concentration gradient was prepared, the cells were pretreated with the compound for 1 hour (the highest final concentration of the compound was 1 μM, diluted in 3-fold concentration gradient), and 10 ng/ml LPS (Lipopolysaccharides from Escherichia coli O111:B4) was added for stimulation for 4 hours. Thereafter, the culture supernatant was collected by centrifugation and used for subsequent ELISA to detect the concentration of TNF-α in the supernatant. The concentration of TNF-α was detected according to the standard steps provided by the ELISA kit manufacturer.
A standard curve was plotted by a linear regression method from a TNF-α standard, and the concentration of TNF-α in a sample was derived by conversion according to the standard curve.
Calculation of inhibition rate: Inhibition rate %=[(mean value of TNF-α concentration in positive control well−mean value of TNF-α concentration in sample well)/(mean value of TNF-α concentration in positive control well−mean value of TNF-α concentration in negative control well)]×100%, wherein the positive control well was a well without a compound (DMSO-treated well), and the negative control well was a culture medium well.
as §1, with “compound. The fitting calculation equation was Y=Bottom+(Top−Bottom)/(1+10^((Log IC50−X)*HillSlope)).” for “compound.”

[2] = Pharmacokinetic assay in SD rats (PO administration); assay type: in vivo; conditions: male, Sprague-Dawley (SD), rat, plasma; for AUC(0-inf): read-out: Area under the curve AUC0-∞; for half-life: read-out: Half-life t1/2 (converted); for MRT: read-out: Mean residence time MRT; for Cmax: read-out: Plasma concentration Cmax; for Tmax: read-out: Time to peak tmax
Procedure: SD rats were used as test animals to study the pharmacokinetic behavior of the compounds of the present invention in the rat body (plasma) after oral administration at a dose of 5 mg/kg or 2 mg/kg and intravenous administration at a dose of 1 mg/kg.
3 SD rats/group, male, from Shanghai Jiesijie Experimental Animal Co., Ltd., animal production license number (SCXK (Shanghai) 2013-0006 N0.311620400001794).
PO, 10% solutol HS15 was dissolved by ultrasound and prepared into a clear solution or homogeneous suspension.
3 SD rats/group, male; After fasting overnight, the rats were administered p.o. at a dose of 5 mg/kg or 2 mg/kg with a dosage volume of 10 mL/kg and i.v. at a dose 1 mg/kg with a dosage volume of 5 mL/kg, respectively.
At 0.25, 0.5, 1, 2, 4, 6, 8, and 24 h after oral administration in the rats and at 0.083, 0.25, 0.5, 1, 2, 4, 6, 8, and 24 h after intravenous administration in the rats, 0.2 mL of blood was collected from the jugular vein, placed in an EDTA-K2 test tube, centrifuged at 4° C. at 6000 rpm for 6 min to separate plasma, which was stored at −80° C.
• 1) 100 μL of acetonitrile was added to 20 μL of plasma sample for pelleting, and it was mixed and centrifuged at 3500×g for 5-20 min. • 2) The treated supernatant solution was taken and subjected to LC/MS/MS to analyze the concentrations of the test compounds. LC/MS/MS analysis instrument: AB Sciex API 4000 Qtrap.
• Liquid phase conditions: Shimadzu LC-20AD pump • Chromatographic column: Waters Xbridge C18 5 μm, 4.6×50 mm, mobile phase: liquid A was 0.1% aqueous formic acid solution, and liquid B was methanol • Flow rate: 1.0 mL/min • Elution time: 0-4.0 min, the eluent was as follows:
The main pharmacokinetic parameters were calculated using WinNonlin 6.1.

p38-MK2, sequence (Q16539 whole entry): as above
p38-MK2, sequence (P49137 whole entry): as the sequence (P49137 whole entry) above

| SMILES | IC50 (p-Hsp27 in U937 cells) [nM] | IC50 (p38α/MK2) [nM] | Selectivity ratio (p38 IC50 / p38/MK2 IC50) (p38α/MK2) | IC50 [1] [nM] | IC50 (TNF-α in U937 cells) [nM] | AUC(0-inf) ([2]; 5 mg/kg) [ng·h/mL] | half-life ([2]; 5 mg/kg) [h] | MRT ([2]; 5 mg/kg) [h] | Cmax ([2]; 5 mg/kg) [ng/mL] | Tmax ([2]; 5 mg/kg) [h] | AUC(0-inf) ([2]; 2 mg/kg) [ng·h/mL] | half-life ([2]; 2 mg/kg) [h] | MRT ([2]; 2 mg/kg) [h] | Cmax ([2]; 2 mg/kg) [ng/mL] | Tmax ([2]; 2 mg/kg) [h] | efficacy (p38-MK2) | safety and tolerability (p38-MK2) |
| --- | --- | --- | --- | --- | --- | --- | --- | --- | --- | --- | --- | --- | --- | --- | --- | --- | --- |
| Cc1cnc(-c2ccnc(C(C)(C)O)n2)cc1-n1c(C)cc(OCc2ncc(F)cc2F)c(Cl)c1=O [ATI-450] |  |  |  |  |  |  |  |  |  |  |  |  |  |  |  | outstanding and lasting efficacy | safe and tolerable |
| [2H]C([2H])(Oc1cc2n(c(=O)c1Cl)-c1c(cnc(-c3ccnc(C(C)(C)NC(C)=O)n3)c1F)CCCC2)c1ncc(F)cc1F [Example 7-1, (R)—N-(2-(4-(11-chloro-10-((3,5-difluoropyridin-2-yl)methoxy-d2)-1-fluoro-12-carbonyl-6,7,8,12-tetrahydro-5H-dipyrido[1,2-a:3,4′-g]azocin-2-yl)pyrimidin-2-yl)propan-2-yl)acetamide] | 0.35 | 0.34 | 144 | 49.1 | 0.34 |  |  |  |  |  | 7350 | 1.4 | 2.5 | 2160 | 1 |  |  |
| [2H]C([2H])(Oc1cc2n(c(=O)c1Cl)-c1cc(-n3cccc(C(C)(C)O)c3=O)ncc1CCCC2)c1ncc(F)cc1F [Example 15-1, (S)-11-chloro-10-((3,5-difluoropyridin-2-yl)methoxy-d2)-2-(3-(2-hydroxypropan-2-yl)-2-carbonylpyridin-1(2H)-yl)-5,6,7,8-tetrahydro-12H-dipyrido[1,2-a:3′,4′-g]azocin-12-one] | 0.32 | 0.2 | 268 | 53.6 | 0.18 |  |  |  |  |  |  |  |  |  |  |  |  |

The remaining compounds from weak to strong by IC50 (p-Hsp27 in U937 cells), led by results:

| IC50 (p-Hsp27 in U937 cells) [nM] | IC50 (p38α/MK2) [nM] | Selectivity ratio (p38 IC50 / p38/MK2 IC50) (p38α/MK2) | IC50 [1] [nM] | IC50 (TNF-α in U937 cells) [nM] | AUC(0-inf) ([2]; 5 mg/kg) [ng·h/mL] | half-life ([2]; 5 mg/kg) [h] | MRT ([2]; 5 mg/kg) [h] | Cmax ([2]; 5 mg/kg) [ng/mL] | Tmax ([2]; 5 mg/kg) [h] | AUC(0-inf) ([2]; 2 mg/kg) [ng·h/mL] | half-life ([2]; 2 mg/kg) [h] | MRT ([2]; 2 mg/kg) [h] | Cmax ([2]; 2 mg/kg) [ng/mL] | Tmax ([2]; 2 mg/kg) [h] | SMILES | efficacy (p38-MK2) | safety and tolerability (p38-MK2) |
| --- | --- | --- | --- | --- | --- | --- | --- | --- | --- | --- | --- | --- | --- | --- | --- | --- | --- |
| 0.15 | 0.1 | 153 | 15.3 | 0.16 | 14200 | 2.7 | 2.9 | 4180 | 1 |  |  |  |  |  | [2H]C([2H])(Oc1cc2n(c(=O)c1Cl)-c1c(cnc(-n3cc(F)c(C(C)(C)NC(C)=O)n3)c1F)CCCC2)c1ncc(F)cc1F [Example 6-1, (R)—N-(2-(1-(11-chloro-10-((3,5-difluoropyridin-2-yl)methoxy-d2)-1-fluoro-12-carbonyl-6,7,8,12-tetrahydro-5H-dipyrido[1,2-a:3′,4′-g]azocin-2-yl)-4-fluoro-1H-pyrazol-3-yl)propan-2-yl)acetamide] |  |  |
| 0.13 | 0.05 | 102 | 5.1 | 0.12 |  |  |  |  |  |  |  |  |  |  | [2H]C([2H])(Oc1cc(C)n(-c2cc(-n3cccc(C(C)(C)O)c3=O)ncc2C)c(=O)c1Cl)c1ccc(F)cc1F [Example 14-1, (S)-3″-chloro-4″-((2,4-difluorophenyl)methoxy-d2)-3-(2-hydroxypropan-2-yl)-5′,6″-dimethyl-2H,2″H-[1,2′:4′,1″-terpyridine]-2,2″-dione] |  |  |
| 0.1 | 0.14 | 164 | 22.9 | 0.12 | 22000 | 2.5 | 3.8 | 3760 | 0.5 |  |  |  |  |  | [2H]C([2H])(Oc1cc2n(c(=O)c1Cl)-c1c(cnc(-c3ccnc(C(C)(C)O)n3)c1F)CCCC2)c1ncc(F)cc1F [Example 9-1, (R)-11-chloro-10-((3,5-difluoropyridin-2-yl)methoxy-d2)-1-fluoro-2-(2-(2-hydroxypropan-2-yl)pyrimidin-4-yl)-5,6,7,8-tetrahydro-12H-dipyrido[1,2-a:3′4′-g]azocin-12-one] |  |  |

Source: patent US20250066360A1, “PYRIDINE-CONTAINING POLYCYCLIC DERIVATIVE, AND PREPARATION METHOD THEREFOR AND USE THEREOF” (SHANGHAI HANSOH BIOMEDICAL CO., LTD., priority 2022, published 2025)
